Assay results reported in patent US20120324604A1, “PESTICIDAL MIXTURES CONTAINING ISOXAZOLINE DERIVATIVES AND A FUNGICIDE” (priority 2010, published 2012).
Several values for one entry are separate records, joined by “and”; a condition that tells them apart may be missing. Identical values can stand only once.

Columns and labels:
Type in all cases: cell-based
Rhizoctonia solani = Rhizoctonia solani (Foot Rot, Damping-Off) growth inhibition, microtiter plate, photometric; conditions: applied alone
Description: Rhizoctonia solani (Foot Rot, Damping-Off):
Mycelial fragments of the fungus from cryogenic storage were directly mixed into nutrient broth (potato dextrose broth). After placing a (DMSO) solution of the test compounds into a microtiter plate (96-well format) the nutrient broth containing the fungal spores was added.

Gaeumannomyces graminis = Gaeumannomyces graminis growth inhibition, microtiter plate, photometric
Description: Mycelial fragments of the fungus from cryogenic storage were directly mixed into nutrient broth (potato dextrose broth). After placing a (DMSO) solution of the test compounds into a microliter plate (96-well format) the nutrient broth containing the fungal spores was added.

[1] = test system: Glomerella lagenarium (syn. Colletotrichum lagenarium); assay: Glomerella lagenarium (Anthracnose of Cucurbits) growth inhibition, microtiter plate, photometric; conditions: alone
Description: Glomerella lagenarium (syn. Colletotrichum lagenarium), Anthracnose of Cucurbits:
(§1) Conidia of the fungus from cryogenic storage were directly mixed into nutrient broth (potato dextrose broth). After placing a (DMSO) solution of the test compounds into a microtiter plate (96-well format) the nutrient broth containing the fungal spores was added.

Septoria tritici = Septoria tritici (Leaf Blotch) growth inhibition, microtiter plate, photometric
Description: Septoria tritici (Leaf Blotch):
as §1

[2] = test system: Mycosphaerella arachidis (syn. Cercospora arachidicola); assay: Mycosphaerella arachidis (Brown Leaf Spot of Groundnut) growth inhibition, microtiter plate, photometric; conditions: alone
Description: Mycosphaerella arachidis (syn. Cercospora arachidicola), Brown Leaf Spot of Groundnut (Peanut):
as §1

Fusarium culmorum = Fusarium culmorum (Root Rot) growth inhibition, microtiter plate, photometric
Description: Fusarium culmorum (Root Rot):
as §1

Structure (SMILES): CC1COC(Cn2cncn2)(c2ccc(Oc3ccc(Cl)cc3)cc2Cl)O1 (centres unmarked) [Difenoconazole]
- AVERAGE DEAD IN % (Rhizoctonia solani; 0.25 ppm AI): 20%
- AVERAGE DEAD IN % (Rhizoctonia solani; 0.5 ppm AI): 50% and 70%
- AVERAGE DEAD IN % (Rhizoctonia solani; 1 ppm AI): 50% and 100%
- AVERAGE DEAD IN % (Rhizoctonia solani; 2 ppm AI): 100%
- AVERAGE DEAD IN % (Gaeumannomyces graminis; single compound at 0.25 ppm AI): 0%
- AVERAGE DEAD IN % (Gaeumannomyces graminis; single compound at 0.5 ppm AI): 0%
- AVERAGE DEAD IN % (Gaeumannomyces graminis; single compound at 1 ppm AI): 20%
- AVERAGE DEAD IN % (Gaeumannomyces graminis; single compound at 2 ppm AI): 90%
- AVERAGE DEAD IN % ([1]; 0.5 ppm AI): 20%
- AVERAGE DEAD IN % ([1]; 1 ppm AI): 20%
- AVERAGE DEAD IN % (Septoria tritici; 0.03125 ppm AI, alone): 50%
- AVERAGE DEAD IN % (Septoria tritici; 0.0625 ppm AI, alone): 70%
- AVERAGE DEAD IN % (Septoria tritici; 0.125 ppm AI, alone): 90%
- AVERAGE DEAD IN % (Septoria tritici; 0.25 ppm AI, alone): 90%
- AVERAGE DEAD IN % (Septoria tritici; 0.5 ppm AI, alone): 90%
- AVERAGE DEAD IN % (Septoria tritici; 1 ppm AI, alone): 90%
- AVERAGE DEAD IN % (Septoria tritici; 2 ppm AI, alone): 90%
- AVERAGE DEAD IN % Difenoconazole (Septoria tritici; Difenoconazole alone, 0.0078125 ppm AI): 0%
- AVERAGE DEAD IN % Difenoconazole (Septoria tritici; Difenoconazole alone, 0.015625 ppm AI): 0%
- AVERAGE DEAD IN % Difenoconazole (Septoria tritici; Difenoconazole alone, 0.0625 ppm AI): 50% and 70%
- AVERAGE DEAD IN % Difenoconazole (Septoria tritici; Difenoconazole alone, 0.125 ppm AI): 70% and 90%
- AVERAGE DEAD IN % Difenoconazole (Septoria tritici; Difenoconazole alone, 0.25 ppm AI): 70% and 90%
- AVERAGE DEAD IN % Difenoconazole (Septoria tritici; Difenoconazole alone, 0.5 ppm AI): 90%
- AVERAGE DEAD IN % Difenoconazole (Septoria tritici; Difenoconazole alone, 1 ppm AI): 90%
- AVERAGE DEAD IN % Difenoconazole (Septoria tritici; Difenoconazole alone, 2 ppm AI): 90%
- AVERAGE DEAD IN % ([2]; 0.00390625 ppm AI): 0%
- AVERAGE DEAD IN % ([2]; 0.0078125 ppm AI): 50%
- AVERAGE DEAD IN % ([2]; 0.00390625 PPM AI): 0%
- AVERAGE DEAD IN % ([2]; 0.015625 PPM AI): 50% and 90%
- AVERAGE DEAD IN % (Fusarium culmorum; alone, 0.25 PPM AI): 20%
- AVERAGE DEAD IN % (Fusarium culmorum; alone, 0.5 PPM AI): 20%
- AVERAGE DEAD IN % (Fusarium culmorum; alone, 1 PPM AI): 20%
- AVERAGE DEAD IN % (Fusarium culmorum; alone, 2 PPM AI): 90%
- AVERAGE DEAD IN % (Fusarium culmorum; single compound, 0.25 PPM AI, 48 hrs, 24° C.): 20%
- AVERAGE DEAD IN % (Fusarium culmorum; single compound, 0.5 PPM AI, 48 hrs, 24° C.): 20%
- AVERAGE DEAD IN % (Fusarium culmorum; single compound, 1 PPM AI, 48 hrs, 24° C.): 70%

Structure (SMILES): CC(C1CC1)C(O)(Cn1cncn1)c1ccc(Cl)cc1 (centres unmarked) [Cyproconazole]
- AVERAGE DEAD IN % (Rhizoctonia solani; 0.25 ppm AI): 20%
- AVERAGE DEAD IN % (Rhizoctonia solani; 2 ppm AI): 70% and 100%
- AVERAGE DEAD IN % (Gaeumannomyces graminis; single compound at 0.25 ppm AI): 20%
- AVERAGE DEAD IN % (Gaeumannomyces graminis; single compound at 0.5 ppm AI): 50% and 90%
- AVERAGE DEAD IN % (Gaeumannomyces graminis; single compound at 1 ppm AI): 70%
- AVERAGE DEAD IN % (Gaeumannomyces graminis; single compound at 2 ppm AI): 90%
- AVERAGE DEAD IN % (Septoria tritici; 0.25 ppm AI, alone): 20%
- AVERAGE DEAD IN % (Septoria tritici; 0.5 ppm AI, alone): 50%
- AVERAGE DEAD IN % (Septoria tritici; 1 ppm AI, alone): 70%
- AVERAGE DEAD IN % (Septoria tritici; 2 ppm AI, alone): 90%
- AVERAGE DEAD IN % Cyproconazole (Septoria tritici; Cyproconazole alone, 0.5 ppm AI): 50%
- AVERAGE DEAD IN % Cyproconazole (Septoria tritici; Cyproconazole alone, 1 ppm AI): 70%
- AVERAGE DEAD IN % Cyproconazole (Septoria tritici; Cyproconazole alone, 2 ppm AI): 90%
- AVERAGE DEAD IN % (Septoria tritici; alone, 0.25 ppm AI): 0%
- AVERAGE DEAD IN % (Septoria tritici; alone, 0.5 ppm AI): 50%
- AVERAGE DEAD IN % (Septoria tritici; alone, 1 ppm AI): 70%
- AVERAGE DEAD IN % (Septoria tritici; alone, 2 ppm AI): 70%
- AVERAGE DEAD IN % ([2]; 0.125 ppm AI): 70%
- AVERAGE DEAD IN % ([2]; 0.0625 PPM AI): 0%
- AVERAGE DEAD IN % ([2]; 0.125 PPM AI): 20%
- AVERAGE DEAD IN % ([2]; 0.25 PPM AI): 70% and 100%
- AVERAGE DEAD IN % ([2]; 0.5 PPM AI): 100%
- AVERAGE DEAD IN % (Fusarium culmorum; alone, 2 PPM AI): 20%

Structure (SMILES): Cn1cc(C(=O)Nc2cccc3c2C2CCC3C2=C(Cl)Cl)c(C(F)F)n1 (centres unmarked) [COMPOUND III]
- AVERAGE DEAD IN % (Rhizoctonia solani; 0.03125 ppm AI): 90%
- AVERAGE DEAD IN % (Gaeumannomyces graminis; single compound at 0.00390625 ppm AI): 0%
- AVERAGE DEAD IN % (Gaeumannomyces graminis; single compound at 0.0078125 ppm AI): 0%
- AVERAGE DEAD IN % (Gaeumannomyces graminis; single compound at 0.0625 ppm AI): 70% and 90%
- AVERAGE DEAD IN % (Gaeumannomyces graminis; single compound at 0.125 ppm AI): 90%
- AVERAGE DEAD IN % (Gaeumannomyces graminis; single compound at 0.25 ppm AI): 100%
- AVERAGE DEAD IN % (Gaeumannomyces graminis; single compound at 0.5 ppm AI): 100%
- AVERAGE DEAD IN % (Gaeumannomyces graminis; single compound at 1 ppm AI): 100%
- AVERAGE DEAD IN % (Gaeumannomyces graminis; single compound at 2 ppm AI): 100%
- AVERAGE DEAD IN % ([1]; 0.0078125 ppm AI): 0%
- AVERAGE DEAD IN % ([1]; 0.015625 ppm AI): 0%
- AVERAGE DEAD IN % ([1]; 0.125 ppm AI): 50%
- AVERAGE DEAD IN % (Septoria tritici; 0.125 ppm AI, alone): 20%
- AVERAGE DEAD IN % (Septoria tritici; 0.25 ppm AI, alone): 70% and 50%
- AVERAGE DEAD IN % (Septoria tritici; 0.5 ppm AI, alone): 90%
- AVERAGE DEAD IN % COMPOUND III (Septoria tritici; COMPOUND III alone, 0.0078125 ppm AI): 0%
- AVERAGE DEAD IN % COMPOUND III (Septoria tritici; COMPOUND III alone, 0.015625 ppm AI): 0%
- AVERAGE DEAD IN % COMPOUND III (Septoria tritici; COMPOUND III alone, 0.03125 ppm AI): 0%
- AVERAGE DEAD IN % COMPOUND III (Septoria tritici; COMPOUND III alone, 0.0625 ppm AI): 0%
- AVERAGE DEAD IN % COMPOUND III (Septoria tritici; COMPOUND III alone, 0.125 ppm AI): 20%
- AVERAGE DEAD IN % COMPOUND III (Septoria tritici; COMPOUND III alone, 0.25 ppm AI): 50% and 70%
- AVERAGE DEAD IN % COMPOUND III (Septoria tritici; COMPOUND III alone, 0.5 ppm AI): 70%
- AVERAGE DEAD IN % COMPOUND III (Septoria tritici; COMPOUND III alone, 1 ppm AI): 90%
- AVERAGE DEAD IN % ([2]; 0.0078125 ppm AI): 0%
- AVERAGE DEAD IN % ([2]; 0.015625 ppm AI): 0%
- AVERAGE DEAD IN % ([2]; 0.03125 ppm AI): 20%
- AVERAGE DEAD IN % ([2]; 0.0625 ppm AI): 90%
- AVERAGE DEAD IN % ([2]; 0.03125 PPM AI): 70% and 50%
- AVERAGE DEAD IN % ([2]; 0.0625 PPM AI): 100% and 70% and 90%
- AVERAGE DEAD IN % ([2]; 0.125 PPM AI): 90%
